Assay results: patent publication US6897228B2, “Pyridoxine and pyridoxal analogues: new uses” (Medicure International Inc., priority 2000, dated 2005)
Marks after values point to notes of the source that are not given here.

Experiments:
[1] = test system: Male Wistar rats, embolic focal cerebral ischemia (MCA); test: Neuroprotection in rat embolic stroke model; format: in vivo; settings: for infarction volume: 48 h, mean±SEM; for Hemorrhage rate / Mortality rate (pre-mature death) / Seizure occurrence: n=10; for Neurological deficits (modified Bederson score): median (25-75th percentile)
Description: Male Wistar rats, weighting 300-350 g, were purchased from Charles River, St. Constant, Canada. Embolic focal cerebral ischemia was induced by embolizing a preformed clot into the middle cerebral artery (MCA). (For details of the procedure see Wang C X, Yang Y, Shuaib A. A focal embolic model of cerebral ischemia in rats. Brain Res. Protoc. 7:115-120, 2001. Wang C, Yang T and Shuaib A: An improved version of embolic model of brain ischemic injury in the rat. J. Neurosci. Meth. 109:147-151, 2001).
The study consisted of four groups (n=10). Animals were randomly assigned to one of the four groups. Treatments were started at 1 h after MCA occlusion. […] In the control group, 0.5% DMSO (1.5 ml) was infused.
The procedure for assessment of infarct volume were detailed previously (Bederson J B, Pitts L H, Tsuji M, Nishimura M C, Davis R L, Bartkowski H. Rat middle cerebral artery occlusion: evaluation of the model and development of a neurologic examination. Stroke 17:472-476, 1986. Yang, Y., Shuaib, A., and Li, Q. Quantification of infarct size on focal cerebral ischemia model of rats using a simple and economical method. J. Neurosci. Meth., 84:9-16, 1998). Briefly, at 48 h after ischemia the anesthetized animal was sacrificed by decapitation and the brain removed. The volume of infarction was measured in the brain sections stained with 2,3,5-triphenyltetrazolium chloride (TTC) solution with following formula, corrected infarct size=the volume of the left hemisphere−(the volume of the right hemisphere-measured infarct volume). The percentage of infarct volume was obtained by calculating the portion of the corrected infarct volume and dividing it by the total volume of the left hemisphere. Brain swelling was determined using a formula: swelling (edema)=(volume of the right hemisphere[…])/volume of the left hemisphere. Hemorrhage transformation was identified from the TTC stain brain sections.
Neurological deficits and seizure activities were recorded at 2, 24 and 48 hours after embolization. Neurological deficits were determined using a modified Bederson's scoring system (Bederson J B, Pitts L H, Tsuji M, Nishimura M C, Davis R L, Bartkowski H. Rat middle cerebral artery occlusion: evaluation of the model and development of a neurologic examination. Stroke (17:472-476, 1986). 0: no observable deficit; 1: forelimb flexion; 2: forelimb flexion plus decreased resistance to lateral push; 3: unidirectional circling; 4: unidirectional circling plus decreased level of consciousness. Seizure activity, hemorrhage and mortality were also recorded. […]. Results are shown in Table 25-1
The differences of infarction volume were analyzed with one way ANOVA followed by Dunnett's test. Neurological deficit scores were reported as medians and interquartile ranges, considering 25-75th percentile. The neurological scores were analyzed with Kruskal-Wallis test when more than two groups, and analyzed with Mann-Whitney test when comparison was done in two groups. The rates of mortality and seizure occurrence following different treatments were compared with Chi-square test. Differences were considered significant when p<0.05.

[2] = test system: platelets (platelet rich plasma); test: Inhibition of platelet aggregation (aggregometer, platelet rich plasma); format: cell-based; settings: for Extent of aggregation as a percentage amplitude, 1 μg/mL collagen: agonist 1 μg/mL collagen; for Extent of aggregation as a percentage amplitude, 4 μM ADP: agonist 4 μM ADP; for Extent of aggregation as a percentage amplitude, 5 μg/mL collagen: agonist 5 μg/mL collagen; for Extent of aggregation as a percentage amplitude, 12 μM TRAP: agonist 12 μM TRAP
Method: Platelet rich plasma (PRP) was obtained by drawing whole blood into sodium citrate tubes (3.2%) and centrifuging at 700 rpm for 10 minutes. Platelet poor plasma (PPP) was obtained by centrifuging the remainder of the sample ntil the platelets were removed (3200 rpm for 10 minutes). The PRP was adjusted to a count of 280×10^9/L using a mixture of PRP and PPP. The incubation mixture consisted of 200 μL of platelets and 25 μL of the appropriate compound (18 mM stock for a final concentration of 2 mM and 4.5 mM stock for a final concentration of 500 μM), rendering an approximate final platelet count in the incubation mixture of 250×10^9/L. After incubation (30 minutes at room temperature, the cuvettes were incubated for 3 minutes at 37° C., transferred to the mixing wells and after the baselines transmittances were measured in an aggregometer (Chrono-Log 4), 25 μL of agonist was added to give a final concentration of 4 μM ADP, 1 μg/mL collagen, 5 μg/mL collagen or 12 μM thrombin receptor activating peptide (TRAP). Final transmittances were then measured in the aggregometer (lower percent transmittance represents higher aggregation). […] Table 24-1 gives the results of the extent of aggregation for several compounds as percentage amplitude read directly from the aggregometer.

Structure (SMILES): Cc1ncc(CNc2ccc(-c3ccc(C(=N)N)cc3)cc2)c(CO)c1O [Compound XL]
- infarction volume ([1]; 10 mg/kg at 1 h after embolization, control 40±2.6%): 30.5±4.8%
- Hemorrhage rate ([1]; 10 mg/kg group, control 1 rat): 2 rats
- Mortality rate (pre-mature death) ([1]; 10 mg/kg group, control 1 rat): 1
- Seizure occurrence ([1]; 10 mg/kg group, control 2 rats): 3 rats
- Ischemic brain edema ([1]; 10 mg/kg, control 5.7±1.3): 6.8±1.9
- Neurological deficits (modified Bederson score) ([1]; 10 mg, 2 h after injury): 3 (3-3)
- Neurological deficits (modified Bederson score) ([1]; 10 mg, 24 h after injury): 2 (2-3)*
- Neurological deficits (modified Bederson score) ([1]; 10 mg, 48 h after injury): 2 (2-3)*
- Ischemic brain edema ([1]; 20 mg/kg): 5.9±1.3
- infarction volume ([1]; 20 mg/kg at 1 h after embolization): 26.5±4.4%
- Hemorrhage rate ([1]; 20 mg/kg group): 1 rat
- Mortality rate (pre-mature death) ([1]; 20 mg/kg group): 1
- Seizure occurrence ([1]; 20 mg/kg group): 2 rats
- Neurological deficits (modified Bederson score) ([1]; 20 mg, 2 h after injury): 3 (3-3)
- Neurological deficits (modified Bederson score) ([1]; 20 mg, 24 h after injury): 2 (2-3)*
- Neurological deficits (modified Bederson score) ([1]; 20 mg, 48 h after injury): 2 (2-3)*
- Ischemic brain edema ([1]; 40 mg/kg): 7.9±2.1
- infarction volume ([1]; 40 mg/kg at 1 h after embolization): 25.9±3.4%
- Hemorrhage rate ([1]; 40 mg/kg group): 2 rats
- Seizure occurrence ([1]; 40 mg/kg group): 2 rats
- Neurological deficits (modified Bederson score) ([1]; 40 mg, 2 h after injury): 3 (3-3)
- Neurological deficits (modified Bederson score) ([1]; 40 mg, 24 h after injury): 2 (2-3)*
- Neurological deficits (modified Bederson score) ([1]; 40 mg, 48 h after injury): 2.5 (2-2)*
- Extent of aggregation as a percentage amplitude, 1 μg/mL collagen ([2]; compound 500 μM): 4%
- Extent of aggregation as a percentage amplitude, 4 μM ADP ([2]; compound 500 μM): 9%
- Extent of aggregation as a percentage amplitude, 5 μg/mL collagen ([2]; compound 500 μM): 52%
- Extent of aggregation as a percentage amplitude, 12 μM TRAP ([2]; compound 500 μM): 3%
- Extent of aggregation as a percentage amplitude, 1 μg/mL collagen ([2]; compound 2 mM): 4%
- Extent of aggregation as a percentage amplitude, 4 μM ADP ([2]; compound 2 mM): 4%
- Extent of aggregation as a percentage amplitude, 5 μg/mL collagen ([2]; compound 2 mM): 5%
- Extent of aggregation as a percentage amplitude, 12 μM TRAP ([2]; compound 2 mM): 4%
